Experimental data as given in patent publication US9796700B2 (Celgene CAR LLC, priority 2013, dated 2017).
Read-outs that look alike come from different tables or passages of the source.

Key:
Erk1 = Erk1 (Homo sapiens (Human), UniProt P27361); assay: Protein Mass Modification Assay (intact protein MALDI); type: binding
In short: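 Percent covalent modification comes from the intact-protein MALDI centroid mass shift, treated versus control, divided by compound MW. Before analysis, human Erk1 was exposed to compound at 10-fold excess over protein for 60 min at room temperature.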

MEK1 activated ERK1 = MEK1 activated ERK1 (Homo sapiens (Human), UniProt P27361); assay: Omnia continuous-read kinase assay for potency against MEK1 activated ERK1; type: biochemical
Sequence of MEK1 activated ERK1 (P27361 whole entry): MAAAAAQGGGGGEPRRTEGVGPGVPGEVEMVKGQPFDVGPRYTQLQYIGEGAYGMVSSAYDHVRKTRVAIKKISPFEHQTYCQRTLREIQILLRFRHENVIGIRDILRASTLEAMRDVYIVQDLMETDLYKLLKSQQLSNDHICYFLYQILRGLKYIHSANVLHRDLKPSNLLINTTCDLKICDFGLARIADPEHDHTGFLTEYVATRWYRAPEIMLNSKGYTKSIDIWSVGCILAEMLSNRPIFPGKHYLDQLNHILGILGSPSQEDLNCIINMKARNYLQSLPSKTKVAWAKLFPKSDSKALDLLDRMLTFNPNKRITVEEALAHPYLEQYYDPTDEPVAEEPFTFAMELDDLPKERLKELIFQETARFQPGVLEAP
In short: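 Apparent IC50 came from initial reaction slopes (RFU vs time) plotted against log inhibitor with a variable-slope fit. Reactions were started with ERK1 (4 nM final) added to 50 μM ATP, roughly at its appKM, and 10 μM Sox-conjugated ST17 peptide in 20 mM Tris pH 7.5, 5 mM MgCl2. Fluorescence was monitored every 71 seconds.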

[1] = MEK1 activated ERK1, WT, ATP at KM
[2] = read-out: ERK1 Omnia WT ATP KM IC50

Sequence of Erk1 (P27361 whole entry, looked up): as the sequence (P27361 whole entry) above

| ERK1 Mass Mod (%) (Erk1) | IC50 (MEK1 activated ERK1; [1]) [nM] | Compound | IC50 (MEK1 activated ERK1; [2]) [nM] |
| --- | --- | --- | --- |
| G (proived a mass modification ≦30%) | < 100 | C#CCOc1cc(C)c(Nc2ncc(Cl)c(Nc3ccccc3NC(=O)C=C)n2)cc1C(N)=O [Compound I-228, 5-((4-((2-acrylamidophenyl)amino)-5-chloropyrimidin-2-yl)amino)-4-methyl-2-(prop-2-yn-1-yloxy)benzamide] |  |
| E (provided a mass modification of ≧70%) | < 100 | C=CC(=O)Nc1cc(OC)ccc1Nc1nc(Nc2cc(C(N)=O)ccc2C)ncc1Cl [Compound I-237, 3-((4-((2-acrylamido-4-methoxyphenyl)amino)-5-chloropyrimidin-2-yl)amino)-4-methylbenzamide] |  |
| E (provided a mass modification of ≧70%) | > 1000 | C=CC(=O)Nc1cc(C)ccc1Nc1nc(Nc2cc(Cl)nc(OC)c2)ncc1Cl [Compound I-244, N-(2-((5-chloro-2-((2-chloro-6-methoxypyridin-4-yl)amino)pyrimidin-4-yl)amino)-5-methylphenyl)acrylamide] |  |
| E (provided a mass modification of ≧70%) | < 100 | C=CC(=O)Nc1ccccc1Oc1nc(Nc2ccc(N3CCN(C(C)=O)CC3)cc2OC)ncc1C(N)=O [Compound I-258, 2-((4-(4-acetylpiperazin-1-yl)-2-methoxyphenyl)amino)-4-(2-acrylamidophenoxy)pyrimidine-5-carboxamide] |  |
| G (proived a mass modification ≦30%) | > 1000 | C=CC(=O)Nc1ccccc1Oc1nc(Nc2ccc(N3CCN(C(C)=O)CC3)cc2OC)ncc1F [Compound I-260, N-(2-((2-((4-(4-acetylpiperazin-1-yl)-2-methoxyphenyl)amino)-5-fluoropyrimidin-4-yl)oxy)phenyl)acrylamide] |  |
| G (proived a mass modification ≦30%) | > 1000 | C=CC(=O)Nc1ccccc1Oc1ccnc(Nc2ccc(N3CCN(C(C)=O)CC3)cc2OC)n1 [Compound I-261, N-(2-((2-((4-(4-acetylpiperazin-1-yl)-2-methoxyphenyl)amino)pyrimidin-4-yl)oxy)phenyl)acrylamide] |  |

More lines, now with the values behind:

| Compound | ERK1 Mass Mod (%) (Erk1) | IC50 (MEK1 activated ERK1; [1]) [nM] | IC50 (MEK1 activated ERK1; [2]) [nM] |
| --- | --- | --- | --- |
| C=CC(=O)Nc1ccccc1Nc1nc(Nc2cc(C(N)=O)ccc2CC)ncc1Cl [Compound I-193, 3-((4-((2-acrylamidophenyl)amino)-5-chloropyrimidin-2-yl)amino)-4-ethylbenzamide] | E (provided a mass modification of ≧70%) | < 100 |  |
| C=CC(=O)N(C)c1ccccc1Nc1nc(Nc2cc(C(=O)NOC)ccc2C#N)ncc1Cl [Compound I-197, 3-((5-chloro-4-((2-(N-methylacrylamido)phenyl)amino)pyrimidin-2-yl)amino)-4-cyano-N-methoxybenzamide] | E (provided a mass modification of ≧70%) | > 1000 |  |
| C=CC(=O)N[C@@H]1CCCC[C@@H]1Nc1nc(Nc2cc(C(N)=O)ccc2C)ncc1Cl [Compound I-199, 3-((4-(((1S,2R)-2-acrylamidocyclohexyl)amino)-5-chloropyrimidin-2-yl)amino)-4-methylbenzamide] | G (proived a mass modification ≦30%) | > 1000 |  |
| C=CC(=O)N[C@H]1CCCC[C@H]1Nc1nc(Nc2cc(C(N)=O)ccc2C)ncc1Cl [Compound I-200, 3-((4-(((1R,2S)-2-acrylamidocyclohexyl)amino)-5-chloropyrimidin-2-yl)amino)-4-methylbenzamide] | G (proived a mass modification ≦30%) | > 1000 |  |
| C=CC(=O)N[C@H]1CCCC[C@@H]1Nc1nc(Nc2cc(C(N)=O)ccc2C)ncc1Cl [Compound I-201, 3-((4-(((1S,2S)-2-acrylamidocyclohexyl)amino)-5-chloropyrimidin-2-yl)amino)-4-methylbenzamide] | G (proived a mass modification ≦30%) | > 1000 |  |
| C=CC(=O)N(C)c1ccccc1Nc1nc(Nc2cc(C(=O)NOCCO)ccc2C#N)ncc1Cl [Compound I-204, 3-((5-chloro-4-((2-(N-methylacrylamido)phenyl)amino)pyrimidin-2-yl)amino)-4-cyano-N-(2-hydroxyethoxy)benzamide] | F (provided a mass modification of 31-69%) | > 1000 |  |
| C=CC(=O)Nc1cc(F)ccc1Nc1nc(Nc2cc(C(N)=O)ccc2OC)ncc1Cl [Compound I-208, 3-((4-((2-acrylamido-4-fluorophenyl)amino)-5-chloropyrimidin-2-yl)amino)-4-methoxybenzamide] | E (provided a mass modification of ≧70%) | < 100 |  |
| C=CC(=O)N[C@H]1CCC[C@@H]1Nc1nc(Nc2cc(C(N)=O)ccc2C)ncc1Cl [Compound I-215, 3-((4-(((1 S,2S)-2-acrylamidocyclopentyl)amino)-5-chloropyrimidin-2-yl)amino)-4-methylbenzamide] | G (proived a mass modification ≦30%) | > 1000 |  |
| CC(C)=CC(=O)c1ccccc1Nc1nc(Nc2cc(C(N)=O)ccc2C)ncc1Cl [Compound I-216, 3-((5-chloro-4-((2-(3-methylbut-2-enoyl)phenyl)amino)pyrimidin-2-yl)amino)-4-methylbenzamide] | G (proived a mass modification ≦30%) | > 1000 |  |
| C=C(C)C(=O)Nc1ccccc1Nc1nc(Nc2cc(C(N)=O)ccc2C)ncc1Cl [Compound I-217, 3-((5-chloro-4-((2-methacrylamidophenyl)amino)pyrimidin-2-yl)amino)-4-methylbenzamide] | G (proived a mass modification ≦30%) | > 1000 |  |
| Cc1ccc(C(N)=O)cc1Nc1ncc(Cl)c(Nc2ccccc2NC(=O)/C=C/CN(C)C)n1 [Compound I-218, (E)-3-((5-chloro-4-((2-(4-(dimethylamino)but-2-enamido)phenyl)amino)pyrimidin-2-yl)amino)-4-methylbenzamide] | G (proived a mass modification ≦30%) | > 1000 |  |
| C/C=C/C(=O)Nc1ccccc1Nc1nc(Nc2cc(C(N)=O)ccc2C)ncc1Cl [Compound I-219, (E)-3-((4-((2-(but-2-enamido)phenyl)amino)-5-chloropyrimidin-2-yl)amino)-4-methylbenzamide] | G (proived a mass modification ≦30%) | > 1000 |  |
| C=CC(=O)Nc1cc(F)ccc1Nc1nc(Nc2ccc(F)cc2C#N)ncc1Cl [Compound I-221, N-(2-((5-chloro-2-((2-cyano-4-fluorophenyl)amino)pyrimidin-4-yl)amino)-5-fluorophenyl)acrylamide] | E (provided a mass modification of ≧70%) | < 100 |  |
| CC(C)=CC(=O)c1ccccc1Oc1nc(Nc2ccc(F)cc2C)ncc1Cl [Compound I-222, 1-(2-((5-chloro-2-((4-fluoro-2-methylphenyl)amino)pyrimidin-4-yl)oxy)phenyl)-3-methylbut-2-en-1-one] | G (proived a mass modification ≦30%) | > 1000 |  |
| CC(C)=CC(=O)c1ccccc1Oc1nc(Nc2cc(C(N)=O)ccc2C)ncc1Cl [Compound I-223, 3-((5-chloro-4-(2-(3-methylbut-2-enoyl)phenoxy)pyrimidin-2-yl)amino)-4-methylbenzamide] | E (provided a mass modification of ≧70%) | > 1000 |  |
| C=C(C)S(=O)(=O)Nc1cc(F)ccc1Nc1nc(Nc2cc(C(C)=O)ccc2C)ncc1Cl [Compound I-243, N-(2-((2-((5-acetyl-2-methylphenyl)amino)-5-chloropyrimidin-4-yl)amino)-5-fluorophenyl)prop-1-ene-2-sulfonamide] | G (key: E: provided a mass modification of ≧70%; F: provided a mass modification of 31-69%; G: proived a mass modification ≦30%) |  | < 100 |
| C=CC(=O)Nc1cc(Cl)ccc1Nc1nc(Nc2cc(Cl)nc(OC)c2)ncc1Cl [Compound I-247, N-(5-chloro-2-((5-chloro-2-((2-chloro-6-methoxypyridin-4-yl)amino)pyrimidin-4-yl)amino)phenyl)acrylamide] | F (provided a mass modification of 31-69%) | > 1000 |  |
| C=CC(=O)Nc1ccccc1Oc1nc(Nc2ccc(N3CCN(C(C)=O)CC3)cc2OC)ncc1Cl [Compound I-259, N-(2-((2-((4-(4-acetylpiperazin-1-yl)-2-methoxyphenyl)amino)-5-chloropyrimidin-4-yl)oxy)phenyl)acrylamide] | F (provided a mass modification of 31-69%) | > 1000 |  |
| C=CC(=O)Nc1cc(OC)ccc1Oc1nc(Nc2ccc(N3CCC[C@@H]3C(N)=O)cc2OC)ncc1C(N)=O [Compound I-262, (R)-4-(2-acrylamido-4-methoxyphenoxy)-2-((4-(2-carbamoylpyrrolidin-1-yl)-2-methoxyphenyl)amino)pyrimidine-5-carboxamide] | F (provided a mass modification of 31-69%) | > 1000 |  |
| C=CC(=O)Nc1cc(OC)ccc1Oc1nc(Nc2ccc(N3CCC[C@@H]3CO)cc2OC)ncc1C(N)=O [Compound I-264, (R)-4-(2-acrylamido-4-methoxyphenoxy)-2-((4-(2-(hydroxymethyl)pyrrolidin-1-yl)-2-methoxyphenyl)amino)pyrimidine-5-carboxamide] | F (key: E: provided a mass modification of ≧70%; F: provided a mass modification of 31-69%; G: proived a mass modification ≦30%) |  | 501 to 999 |
| C=CC(=O)Nc1cc(OC)ccc1Oc1nc(Nc2ccc(N3CCC[C@H]3C(N)=O)cc2OC)ncc1C(N)=O [Compound I-265, (S)-4-(2-acrylamido-4-methoxyphenoxy)-2-((4-(2-carbamoylpyrrolidin-1-yl)-2-methoxyphenyl)amino)pyrimidine-5-carboxamide] | F (provided a mass modification of 31-69%) | > 1000 |  |
